This experiment addresses T1, trimeric, post-fusion form of sE (dengue envelope protein E, residues 1-395) (Dengue virus type 2, UniProt P12823).
T1 construct: post-fusion form of sE, the fragment of E spanning residues 1-395; purchased Hawaii Biotech (Hawaii Biotechnology Group, Inc., Aiea, Hi.); host or cells: Drosophila melanogaster Schneider 2 cells (pMtt vector, prM-E preprotein processed during secretion)
The experiment in a line: fluorescence depolarization binding of stem peptides to sE trimer. The text has this: FIG. 10 depicts fluorescence depolarization binding data for a peptide corresponding to residues 396-429 (in the “stem” region) of dengue envelope protein (E). FIG. 10A depicts a Kd analysis of the peptide's binding affinity to the trimeric, post-fusion form of E. FIG. 10B depicts a competitive binding analysis with the fluorescent and unlabeled peptide.
FIG. 11 depicts a fluorescence depolarization Kd analysis to measure the affinity between a peptide corresponding to residues 413-447 (in the “stem” region) of dengue envelope protein (E). and the trimeric, post-fusion form of E.
A peptide corresponding to residues 396-429 (in the “stem” region) of dengue envelope protein (E) binds with fairly high affinity and specificity to the trimeric, post-fusion form of sE, the fragment of E spanning residues 1-395, which we crystallized first in the pre-fusion form and then in the post-fusion form. We determined the dissociation constant (Kd) of the peptide from sE from fluorescence depolarization measurements using a fluorescently labeled version of the peptide. The Kd is around 6 μM. This indicates a fairly strong binding. FIG. 10 depicts the fluorescence depolarization results. The Kd is approximately equal to the concentration of sE at which the depolarization (in mP) reaches its half-maximal value (see FIG. 10A). […]

Ends that are not written are not given here.

As to `CC[C@H](C)[C@H](NC(=O)[C@H](C)NC(=O)[C@H](CCSC)NC(=O)[C@H](CCCNC(=N)N)NC(=O)[C@H](CCCCN)NC(=O)[C@H](C)NC(=O)CNC(=O)[C@H](CCCNC(=N)N)NC(=O)[C@H](CCSC)NC(=O)[C@@H](NC(=O)[C@@H](NC(=O)[C@H](CCC(=O)O)NC(=O)[C@H](Cc1ccccc1)NC(=O)[C@H](CCSC)NC(=O)[C@H](CCC(N)=O)NC(=O)CNC(=O)[C@@H](NC(=O)[C@H](CO)NC(=O)[C@@H](N)CO)[C@@H](C)CC)[C@@H](C)O)[C@@H](C)O)C(=O)N[C@@H](CC(C)C)C(=O)NCC(=O)N[C@@H](CC(=O)O)C(=O)N[C@H](C(=O)N[C@@H](C)C(=O)N[C@@H](Cc1c[nH]c2ccccc12)C(=O)N[C@@H](CC(=O)O)C(=O)N[C@@H](Cc1ccccc1)C(=O)NCC(=O)N[C@@H](CO)C(=O)N[C@@H](CC(C)C)C(=O)NCC(=O)NCC(=O)N[C@H](C(=O)N[C@@H](Cc1ccccc1)C(=O)O)C(C)C)[C@@H](C)O` [396-429], the “competitive binding of fluorescent and unlabeled peptide” value (fluorescence depolarization, FIG. 10B, shows that binding is specific to one site of sE) was “can be competed off of sE with unlabeled peptide”.
“AILGDTAWDFGSLGGVFTSIGKALHQVFGAIYGAA [413-447]”: the Kd (usually the concentration at which binding is half-saturated) is approximately 4 µM.

For the origin of these results see patent publication US8673552B2, “Druggable regions in the dengue virus envelope glycoprotein and methods of using the same” (Children's Medical Center Corporation, priority 2003, dated 2014).
